# Laboratory results from PMC10125213 (Journal of Molecular Biology, 2023).
# Read-outs that look alike come from different tables or passages of the source.
# Legend:
# WT S protein = WT S protein (Severe acute respiratory syndrome coronavirus 2, UniProt P0DTC2); assay: biochemical; assay type: binding
# WT RBD = WT RBD (Severe acute respiratory syndrome coronavirus 2, UniProt P0DTC2); assay type: binding
compound,measurement,setting,value
"N[C@@H](CCC(=O)N[C@@H](CS)C(=O)NCC(=O)O)C(=O)O [GSH, reduced glutathione]",effects on WT S protein,WT S protein,did not exhibit any effects
NCCCNCCS [WR1065],IC50,"WT S protein; IC50, 37 °C 60 min",1 to 10 mM
"CC(=O)N[C@@H](CS)C(=O)O [NAC, N-acetylcysteine]",effects on WT S protein,WT S protein; 37 °C 60 min,did not exhibit any effects
"O=C(O)CCP(CCC(=O)O)CCC(=O)O [TCEP, tris-(2-carboxyethyl)phosphine]",effect on WT RBD,WT RBD,marginal effect
